Laboratory results: article PMC12064818, “A general assay platform to study protein pharmacology using ligand-dependent structural dynamics” (Nature Communications, 2025)
Like-named read-outs stand apart in the source and are kept apart here.

Assays:
[1] = target: T1, FLuc-C-NLuc (firefly luciferase) (Photinus pyralis, UniProt P08659, form not given/L550V); experiment: SDR assay, FLuc-C-NLuc; conditions: Log[Compound]; for SDR+ATP: 10 mM ATP; for SDR: absence of ATP
[2] = target: T1, FLuc-C-NLuc (firefly luciferase); experiment: Firefly luciferase (FLuc) enzymatic luminescence assay, FLuc-C-NLuc; type: biochemical; set-up: key to Enz: % normalized; no enzyme control = 100% inhibition, DMSO = 0; conditions: Log[Compound]
Experimental: The enzyme activity of FLuc-N-HiBiT, FLuc-C-HiBiT, and FLuc-C-NLuc was measured similar to P. pyralis firefly luciferase (FLuc) as previously described. […] Compounds and controls were added to each plate as described in Supplementary Data 8 with a Hornet pintool system (Wako Automation). Compounds were incubated with respective enzymes for 30–60 min at room temperature protected from light and covered by solid metal lid to prevent evaporation. […] Luciferin was incubated with FLuc enzyme for 5 min before FLuc activity was then measured on a ViewLux CCD imager (PerkinElmer), with exposure times up to ten seconds with medium to high gain settings. Data were normalized to average no enzyme control as 100% enzyme inhibition and average DMSO neutral control. See Supplementary Table 4 for additional details.
Supplementary Table 4. Protocol for Firefly luciferase (FLuc) and NanoLuc (NLuc) enzymatic
Supplementary Table 4: Protocol for Firefly luciferase (FLuc) and NanoLuc (NLuc) enzym atic lum inescence assay
Firefly luciferase (FLuc) enzym atic lum inescence assay
Sequence Param eter Value Description
No enzym e control (colum n 1) and enzym e solution (1- 10 nM FLuc enzym e) in FLuc assay
1 Reagent 4 µLbuffer; white/solid bottom , m edium bind, high base plates (Greiner), dispensed with BioRaptr
com pounds transferred to respective colum ns with Pintool
2b Test Com pounds 23 nLconcentration range) in colum ns 5- 48; com pounds transferred to respective wells with
3 Incubation 30 m in Incubate enzym e + com pounds at am bient tem p for 30 m in, protected from light
4 Reagent 3 µLAdd 3 µL of D-luciferin substrate solution to each well (final concentration 10 µM); dispensed
5 Detector ViewLux Read plate lum inescence (Exposure = 1- 10 sec; Gain = Medium -high; Speed = Slow;
Dispensing solution was diluted in 1X PBS, pH 7.4. […]

[3] = target: PKA-N-HiBiT (Homo sapiens, UniProt P17612); experiment: SDR assay, PKA-N-HiBiT; conditions: for SDR Ave Max Response: average maximal response
[4] = target: FLuc-N-HiBiT (firefly luciferase) (Photinus pyralis, UniProt P08659, form not given/L550V); experiment: SDR assay, FLuc-N-HiBiT; conditions: ATP-independent pyrazolo pyrimidine (clade P)
Chain of FLuc-N-HiBiT (firefly luciferase) (P08659 2-550 L550V, form open): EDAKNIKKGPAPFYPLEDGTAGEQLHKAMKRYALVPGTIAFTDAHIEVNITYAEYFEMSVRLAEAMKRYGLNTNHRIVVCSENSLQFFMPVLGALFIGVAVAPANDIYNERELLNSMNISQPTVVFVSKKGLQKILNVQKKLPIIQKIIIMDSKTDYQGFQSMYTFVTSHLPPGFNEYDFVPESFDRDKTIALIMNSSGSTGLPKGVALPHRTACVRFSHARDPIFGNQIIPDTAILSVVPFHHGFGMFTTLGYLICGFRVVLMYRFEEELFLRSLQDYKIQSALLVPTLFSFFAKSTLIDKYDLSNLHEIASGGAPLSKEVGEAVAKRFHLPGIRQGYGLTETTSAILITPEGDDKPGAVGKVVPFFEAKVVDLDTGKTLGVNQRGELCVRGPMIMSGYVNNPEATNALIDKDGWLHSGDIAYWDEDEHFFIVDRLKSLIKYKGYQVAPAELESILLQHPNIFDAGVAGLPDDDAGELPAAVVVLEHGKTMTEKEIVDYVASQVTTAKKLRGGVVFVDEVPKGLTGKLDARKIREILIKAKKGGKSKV

[5] = test system: PKA; conditions: annotation yes/no for kinase library compound; source not given; cited from earlier work
[6] = target: T2, ABL1-N-HiBiT kinase domain (Homo sapiens, UniProt P00519); experiment: SDR assay, ABL1-N-HiBiT; conditions: for SDR Ave Max Response: average maximal SDR response
T2 sequence (P00519 233-500): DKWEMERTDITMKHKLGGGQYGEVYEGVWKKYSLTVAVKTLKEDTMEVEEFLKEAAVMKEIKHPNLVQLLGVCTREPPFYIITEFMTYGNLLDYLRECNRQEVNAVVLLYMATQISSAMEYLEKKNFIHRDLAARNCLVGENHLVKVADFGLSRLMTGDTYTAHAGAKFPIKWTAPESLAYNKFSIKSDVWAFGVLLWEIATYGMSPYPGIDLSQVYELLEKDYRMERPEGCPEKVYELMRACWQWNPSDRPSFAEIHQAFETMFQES

[7] = heatmap data, 128 kinase inhibitors
[8] = read-out: PKA SDR Ave SDR50, PKA-N-HiBiT qHTS, SDR assay, average

T1 sequence (P08659 2-550 L550V, form open): as the sequence (P08659 2-550 L550V, form open) above

O=C(Nc1cccc(F)c1)C1CCN(C(=O)c2ncn3c2COC(c2ccccc2)C3)CC1 (stereo not drawn) [NCGC00449914]
SDR+ATP ([1]; M -4.48): 74.59 | SDR ([1]; M -4.48): 9.87 | SDR+ATP ([1]; M -4.96): 66.41 | SDR ([1]; M -4.96): 8.14 | SDR+ATP ([1]; M -5.44): 59.05 | SDR ([1]; M -5.44): 7.78 | SDR+ATP ([1]; M -5.91): 45.60 | SDR ([1]; M -5.91): 15.68 | SDR+ATP ([1]; M -6.39): 30.44 | SDR ([1]; M -6.39): 7.72 | SDR+ATP ([1]; M -6.87): 16.83 | SDR ([1]; M -6.87): 9.23 | SDR+ATP ([1]; M -7.35): 11.29 | SDR ([1]; M -7.35): 8.67 | SDR+ATP ([1]; M -7.82): 8.00 | SDR ([1]; M -7.82): 8.73 | SDR+ATP ([1]; M -8.30): 7.51 | SDR ([1]; M -8.30): 7.88 | SDR+ATP ([1]; M -8.78): 6.04 | SDR ([1]; M -8.78): 10.30 | SDR+ATP ([1]; M -9.25): 5.78 | SDR ([1]; M -9.25): 9.59 | Enz ([2]; M -4.48): -94.95 | Enz ([2]; M -4.96): -88.02 | Enz ([2]; M -5.44): -77.30 | Enz ([2]; M -5.91): -54.79 | Enz ([2]; M -6.39): -35.39 | Enz ([2]; M -6.87): -17.29 | Enz ([2]; M -7.35): -8.21 | Enz ([2]; M -7.82): -6.89 | Enz ([2]; M -8.30): -1.14 | Enz ([2]; M -8.78): 0.15 | Enz ([2]; M -9.25): -6.05

CC(NC(=O)C1CCN(C(=O)c2ncn3c2COC(c2ccc(F)cc2)C3)CC1)c1ccc(F)cc1 (stereo not drawn) [NCGC00449825]
SDR+ATP ([1]; M -4.48): 5.00 | SDR ([1]; M -4.48): 0.68 | SDR+ATP ([1]; M -4.96): 3.92 | SDR ([1]; M -4.96): 1.78 | SDR+ATP ([1]; M -5.44): 2.46 | SDR ([1]; M -5.44): 4.05 | SDR+ATP ([1]; M -5.91): 1.09 | SDR ([1]; M -5.91): 3.40 | SDR+ATP ([1]; M -6.39): 1.15 | SDR ([1]; M -6.39): 4.21 | SDR+ATP ([1]; M -6.87): 0.36 | SDR ([1]; M -6.87): 3.25 | SDR+ATP ([1]; M -7.35): 2.57 | SDR ([1]; M -7.35): 4.32 | SDR+ATP ([1]; M -7.82): 1.95 | SDR ([1]; M -7.82): 4.76 | SDR+ATP ([1]; M -8.30): 0.0052 | SDR ([1]; M -8.30): 4.00 | SDR+ATP ([1]; M -8.78): 1.06 | SDR ([1]; M -8.78): 4.68 | SDR+ATP ([1]; M -9.25): -0.91 | SDR ([1]; M -9.25): 3.86 | Enz ([2]; M -4.48): -1.94 | Enz ([2]; M -4.96): 0.62 | Enz ([2]; M -5.44): 4.13 | Enz ([2]; M -5.91): 4.09 | Enz ([2]; M -6.39): 3.17 | Enz ([2]; M -6.87): 4.88 | Enz ([2]; M -7.35): 4.82 | Enz ([2]; M -7.82): 4.76 | Enz ([2]; M -8.30): 4.19 | Enz ([2]; M -8.78): 1.93 | Enz ([2]; M -9.25): -2.04

O=c1cc(N2CCOCC2)nc2c3ccccc3ccn12 [Compound 401]
Emax ([3]; read-out: SDR Ave Max Response): 0.18% | pSDR50 (clade P) [4]: 4.78 | % Activity (max response) ([4]; SDR): 29.04% | Annotated PKA activity [5]: no | EC50 ([6]; ABL1 SDR pSDR50, ABL1, SDR, heatmap data, 128 kinase inhibitors): 7.41 µM | EC50 ([6]; SDR Ave SDR50, ABL1-N-HiBiT qHTS, average, unit inferred): 7.6 µM | Emax ([6]; read-out: SDR Ave Max Response): 22.9%

NC1(C(=O)N[C@@H](CCO)c2ccc(Cl)cc2)CCN(c2nc[nH]c3nccc2-3)CC1 [AZD-5363]
SDR Ave Max Response ([3]; PKA-N-HiBiT qHTS, SDR assay): 63.28 | Annotated PKA activity [5]: yes | SDR Ave Max Response ([6]; ABL1-N-HiBiT qHTS): -4.45

CaMKII-IN-1
SDR Ave Max Response ([3]; PKA-N-HiBiT qHTS, SDR assay): -11.95 | Annotated PKA activity [5]: no | ABL1 SDR pSDR50 [6, 7]: 4.38 | SDR Ave Max Response ([6]; ABL1-N-HiBiT qHTS): -23.39

O=C(NOCC(O)CO)c1cc(Br)c(F)c(F)c1Nc1ccc(I)cc1F (stereo not drawn) [PD-318088]
PKA SDR Ave pSDR50 ([3]; PKA-N-HiBiT qHTS, SDR assay, average): 4.33 | SDR Ave Max Response ([3]; PKA-N-HiBiT qHTS, SDR assay): -21.34 | EC50 [3, 8]: 62 µM | Annotated PKA activity [5]: no | SDR Ave Max Response ([6]; ABL1-N-HiBiT qHTS): -2.26

O=C(Nc1cc(C(F)(F)F)ccc1N1CCCCC1)c1ccncc1 [SRPIN340]
SDR Ave Max Response ([3]; PKA-N-HiBiT qHTS, SDR assay): 1.60 | Annotated PKA activity [5]: no | SDR Ave Max Response ([6]; ABL1-N-HiBiT qHTS): -4.31

Cc1ncc(NC(=O)c2ccc(CN3CCN(C)CC3)c(C(F)(F)F)c2)cc1Nc1nccc(-c2cccnc2)n1 [Flumatinib]
SDR Ave Max Response ([3]; PKA-N-HiBiT qHTS, SDR assay): 7.84 | Annotated PKA activity [5]: no | SDR Ave Max Response ([6]; ABL1-N-HiBiT qHTS): 74.04

C=CC(=O)N1CCC(Oc2cc3c(Nc4ccc(Cl)c(Cl)c4F)ncnc3cc2OC)CC1 [Poziotinib]
SDR Ave Max Response ([3]; PKA-N-HiBiT qHTS, SDR assay): 8.47 | Annotated PKA activity [5]: no | ABL1 SDR pSDR50 [6, 7]: 4.03 | SDR Ave Max Response ([6]; ABL1-N-HiBiT qHTS): 56.26

Cc1[nH]c2ccccc2c1C1=C(NCCc2ccc(F)cc2)C(=O)N(C)C1=O [IM-12]
EC50 [3]: 32.4 µM | SDR Ave Max Response ([3]; PKA-N-HiBiT qHTS, SDR assay): -30.07 | EC50 [3, 8]: 41.4 µM | Annotated PKA activity [5]: no | SDR Ave Max Response ([6]; ABL1-N-HiBiT qHTS): -12.41

Cc1cc(F)ccc1-c1nc(NCCNC(=N)NC#N)nc2c1ccc(=O)n2-c1c(F)cccc1F [SB 706504]
SDR Ave Max Response ([3]; PKA-N-HiBiT qHTS, SDR assay): 3.70 | Annotated PKA activity [5]: no | SDR Ave Max Response ([6]; ABL1-N-HiBiT qHTS): 3.05

CN1CCN(CCCNc2ncc(Cl)c(-c3cc4c(C(=O)NC5CC5)cccc4s3)n2)CC1 [LY-2409881]
SDR Ave Max Response ([3]; PKA-N-HiBiT qHTS, SDR assay): -2.90 | Annotated PKA activity [5]: no | ABL1 SDR pSDR50 [6, 7]: 5.21 | SDR Ave Max Response ([6]; ABL1-N-HiBiT qHTS): -19.98 | EC50 ([6]; read-out: SDR Ave SDR50, ABL1-N-HiBiT qHTS, average, unit inferred): 7.98 µM
